Assay results reported in US9982005B2, “Macrolides and methods of their preparation and use” (President and Fellows of Harvard College, priority 2013, dated 2018).
Converted amounts (≈) assume the structure as drawn. Where two headings read alike, the source gives them in different places.

Tests used:
Type in all cases: cell-based
EC107 E. coli ATCC25922 = assay: broth dilution MIC, E. coli EC107
Excerpt: (§1) We have collected MIC data for a total of 50 novel macrolides that this platform has produced against over 21 unique strains of B. subtilis, E. coli, S. aureus, S. pneumoniae, and H. influenzae, including several multidrug-resistant strains, with a special focus on macrolide resistant mechanisms (vide supra). Azithromycin was included as a control macrolide. CLSI standard procedures for broth dilution MIC determination were used. […] These genotypes can be constitutive or inducible. The finding that C4-epi (unnatural) isomers of the “azaketolide” macrolide class have enhanced activities relative to C4 natural isomers is very exciting.

BS1725 B. subtilis ermC = assay: broth dilution MIC, B. subtilis BS1725
Excerpt: as §1

[1] = test system: BS1723 B. subtilis BS168 WT wild type; assay: broth dilution MIC, B. subtilis BS1723; settings: BS1723 B. subtilis BS168 WT wild type
Excerpt: as §1

[2] = test system: SA101 S. aureus ATCC29213; assay: broth dilution MIC, S. aureus SA101
Excerpt: as §1

EC878 E. coli tolC = assay: broth dilution MIC, E. coli EC878
Excerpt: as §1

EC882 E. coli imp = assay: broth dilution MIC, E. coli EC882
Excerpt: as §1

[3] = Escherichia coli, read-out: MIC
[4] = Bacillus subtilis, BS1725 B. subtilis ermC (+ery)
[5] = Bacillus subtilis, BS1725 B. subtilis ermC (−ery)
[6] = Bacillus subtilis, read-out: MIC
[7] = Staphylococcus aureus, ATCC29213, SA101 S. aureus ATCC29213, read-out: MIC

SMILES | MIC (EC107 E. coli ATCC25922; [3]) [µg/mL] | MIC (BS1725 B. subtilis ermC; [4]) [µg/mL] | MIC (BS1725 B. subtilis ermC; [5]) [µg/mL] | MIC [1, 6] [µg/mL] | MIC [2, 7] [µg/mL] | MIC (EC878 E. coli tolC; Escherichia coli) [µg/mL] | MIC (EC882 E. coli imp; Escherichia coli) [µg/mL] | MIC (EC107 E. coli ATCC25922) [µg/mL] | MIC (BS1725 B. subtilis ermC; BS1725 B. subtilis ermC (+ery)) [µg/mL] | MIC (BS1725 B. subtilis ermC; BS1725 B. subtilis ermC (−ery)) [µg/mL] | MIC [1] [µg/mL] | MIC ([2]; SA101 S. aureus ATCC29213) [µg/mL] | MIC (EC878 E. coli tolC) [µg/mL] | MIC (EC882 E. coli imp) [µg/mL]
CC[C@H]1OC(=O)[C@H](C)C(=O)C[C@@H](O[C@@H]2OC(C)CC(N(C)C)C2O)[C@](C)(OC)C[C@@H](C)CN[C@H](C)[C@H]2N(CCCCn3cc(-c4nc5ccccc5s4)nn3)C(=O)O[C@]12C (stereo partly drawn) [FSM-10788] | > 32 | > 32 | > 32 | > 32 | > 32 | 1 (≈ 1.17 µM) | 0.0625 (≈ 0.073 µM) | – | – | – | – | – | – | –
CC[C@H]1OC(=O)[C@H](C)C(=O)C[C@@H](O[C@@H]2OC(C)CC(N(C)C)C2O)[C@](C)(OC)C[C@@H](C)CN[C@H](C)[C@H]2N(CCCCn3cc(-c4ccccn4)nn3)C(=O)O[C@]12C (stereo partly drawn) [FSM-10786] | > 32 | > 32 | > 32 | > 32 | > 32 | 2 (≈ 2.5 µM) | 0.25 (≈ 0.312 µM) | – | – | – | – | – | – | –
CC[C@H]1OC(=O)[C@H](C)C(=O)[C@H](C)[C@@H](O[C@@H]2OC(C)CC(N(C)C)C2O)[C@](C)(OC)C[C@@H](C)CN(C(C)=O)[C@H](C)[C@H]2N(CCCCn3cc(-c4nccs4)nn3)C(=O)O[C@]12C (stereo partly drawn) [FSM-20763] | > 32 | > 32 | – | 16 (≈ 18.6 µM) | 16 (≈ 18.6 µM) | 4 (≈ 4.64 µM) | 2 (≈ 2.32 µM) | – | – | – | – | – | – | –
CC[C@H]1OC(=O)[C@](C)(F)C(=O)C[C@@H](O[C@@H]2OC(C)CC(N(C)C)C2O)[C@](C)(OC)C[C@@H](C)CN[C@H](C)[C@H]2N(CCCCn3cc(-c4cccnn4)nn3)C(=O)O[C@]12C (stereo partly drawn) [FSM-10667] | > 32 | > 32 | > 32 | > 32 | > 32 | 16 (≈ 19.5 µM) | 4 (≈ 4.88 µM) | – | – | – | – | – | – | –
CC[C@H]1OC(=O)[C@](C)(F)C(=O)C[C@@H](O[C@@H]2OC(C)CC(N(C)C)C2O)[C@](C)(OC)C[C@@H](C)CN[C@H](C)[C@H]2N(CCCCn3cc(-c4nccs4)nn3)C(=O)O[C@]12C (stereo partly drawn) [FSM-10666] | > 32 | > 32 | > 32 | > 32 | > 32 | 16 (≈ 19.4 µM) | 4 (≈ 4.85 µM) | – | – | – | – | – | – | –
CC[C@H]1OC(=O)[C@H](C)C(=O)C[C@@H](O[C@@H]2OC(C)CC(N(C)C)C2O)[C@@](C)(OC)C[C@@H](C)CN[C@H](C)[C@H]2N(CCCCn3cc(-c4nccs4)nn3)C(=O)O[C@]12C (stereo partly drawn) [FSM-30501] | > 32 | > 32 | > 32 | > 32 | > 32 | > 32 | > 32 | – | – | – | – | – | – | –
CC[C@H]1OC(=O)[C@](C)(F)C(=O)C[C@@H](O[C@@H]2OC(C)CC(N(C)C)C2O)[C@](C)(OC)C[C@@H](C)CN[C@H](C)[C@H]2N(CCCCn3cc(-c4ccccn4)nn3)C(=O)O[C@]12C (stereo partly drawn) [FSM-10662] | > 32 | > 32 | > 32 | > 32 | > 32 | 16 (≈ 19.6 µM) | 4 (≈ 4.89 µM) | – | – | – | – | – | – | –
CC[C@H]1OC(=O)[C@H](C)C(=O)C[C@@H](O[C@@H]2OC(C)CC(N(C)C)C2O)[C@](C)(OC)C[C@@H](C)CN[C@H](C)[C@H]2N(CCCCn3cc(-c4nccs4)nn3)C(=O)O[C@]12C (stereo partly drawn) [FSM-10787] | 32 (≈ 39.7 µM) | > 32 | > 32 | > 32 | > 32 | 2 (≈ 2.48 µM) | 0.125 (≈ 0.155 µM) | – | – | – | – | – | – | –
CC[C@H]1OC(=O)C(C)(F)C(=O)[C@@H](C)[C@@H](O[C@@H]2OC(C)CC(N(C)C)C2O)[C@](C)(OC)C[C@@H](C)CN(C)[C@H](C)[C@H]2N(CCCCn3cc(-c4nccs4)nn3)C(=O)O[C@]12C (stereo partly drawn) [FSM-20717] | – | – | – | – | – | – | – | >32 | >32 | 8 (≈ 9.39 µM) | 16 (≈ 18.8 µM) | 16 (≈ 18.8 µM) | 1 (≈ 1.17 µM) | 1 (≈ 1.17 µM)
CC[C@H]1OC(=O)[C@H](C)C(=O)C[C@@H](O[C@@H]2OC(C)CC(N(C)C)C2O)[C@@](C)(OC)C[C@@H](C)CN(C(C)=O)[C@H](C)[C@H]2N(CCCCn3cc(-c4ccccn4)nn3)C(=O)O[C@]12C (stereo partly drawn) [FSM-30515] | > 32 | > 32 | > 32 | > 32 | > 32 | > 32 | > 32 | – | – | – | – | – | – | –
CC[C@H]1OC(=O)[C@H](C)C(=O)C[C@@H](O[C@@H]2OC(C)CC(N(C)C)C2O)[C@@](C)(OC)C[C@@H](C)CN[C@H](C)[C@H]2N(CCCCn3cc(-c4ccccn4)nn3)C(=O)O[C@]12C (stereo partly drawn) [FSM-30517] | > 32 | > 32 | > 32 | > 32 | > 32 | > 32 | > 32 | – | – | – | – | – | – | –
CC[C@H]1OC(=O)[C@H](C)C(=O)C[C@@H](O[C@@H]2OC(C)CC(N(C)C)C2O)[C@@](C)(OC)C[C@@H](C)CN(C(C)=O)[C@H](C)[C@H]2N(CCCCn3cc(-c4cccc(N)c4)nn3)C(=O)O[C@]12C (stereo partly drawn) [FSM-30512] | > 32 | > 32 | > 32 | > 32 | > 32 | > 32 | > 32 | – | – | – | – | – | – | –
CC[C@H]1OC(=O)[C@H](C)C(=O)C[C@@H](O[C@@H]2OC(C)CC(N(C)C)C2O)[C@@](C)(OC)C[C@@H](C)CN(C(C)=O)[C@H](C)[C@H]2N(CCCCn3cc(-c4nc5ccccc5s4)nn3)C(=O)O[C@]12C (stereo partly drawn) [FSM-30514] | > 32 | > 32 | > 32 | > 32 | > 32 | > 32 | > 32 | – | – | – | – | – | – | –
CC[C@H]1OC(=O)[C@H](C)C(=O)C[C@@H](O[C@@H]2OC(C)CC(N(C)C)C2O)[C@](C)(OC)C[C@@H](C)CN(C(C)=O)[C@H](C)[C@H]2N(CCCCn3cc(-c4nccs4)nn3)C(=O)O[C@]12C (stereo partly drawn) [FSM-10790] | > 32 | > 32 | > 32 | > 32 | > 32 | 4 (≈ 4.72 µM) | 1 (≈ 1.18 µM) | – | – | – | – | – | – | –
CC[C@H]1OC(=O)[C@H](C)C(=O)C[C@@H](O[C@@H]2OC(C)CC(N(C)C)C2O)[C@](C)(OC)C[C@@H](C)CN(C(C)=O)[C@H](C)[C@H]2N(CCCCn3cc(-c4ccccn4)nn3)C(=O)O[C@]12C (stereo partly drawn) [FSM-10792] | > 32 | > 32 | > 32 | > 32 | > 32 | 4 (≈ 4.75 µM) | 1 (≈ 1.19 µM) | – | – | – | – | – | – | –
CC[C@H]1OC(=O)[C@](C)(F)C(=O)C[C@@H](O[C@@H]2OC(C)CC(N(C)C)C2O)[C@](C)(OC)C[C@@H](C)CN[C@H](C)[C@H]2N(CCCCn3cc(-c4nc5ccccc5s4)nn3)C(=O)O[C@]12C (stereo partly drawn) [FSM-10671] | > 32 | > 32 | > 32 | > 32 | > 32 | 32 (≈ 36.6 µM) | 8 (≈ 9.15 µM) | – | – | – | – | – | – | –
